pIC50: −log10 of the molar value. Where two headings read alike, the source gives them in different places. Where a SMILES comes first, the peptide text is derived from it. Where no end group is shown, it is not given here. [ ]: non-standard residue; d: D form.
Key:
cerebral vasospasm [1] = conditions: rat, cited from earlier work
ETA = conditions: mouse endotoxic shock; cited from earlier work
cerebral vasospasm [2] = conditions: rabbit; cited from earlier work
[3] = molecular target: T1, ETA (rabbit femoral artery) (Oryctolagus cuniculus, UniProt A5A8K3); test: Antagonism of ET-1 stimulated vasoconstriction (VERA-A) in the rabbit femoral artery; conditions: ET-1 agonist, antagonist added 30 minutes prior
T1 construct: Femoral and pulmonary arteries were isolated, cleaned of connective tissue, and cut into 4-mm rings; from tissue; host or cells: endothelium-denuded femoral artery rings of male New Zealand rabbits
T1 sequence (A5A8K3 21-427): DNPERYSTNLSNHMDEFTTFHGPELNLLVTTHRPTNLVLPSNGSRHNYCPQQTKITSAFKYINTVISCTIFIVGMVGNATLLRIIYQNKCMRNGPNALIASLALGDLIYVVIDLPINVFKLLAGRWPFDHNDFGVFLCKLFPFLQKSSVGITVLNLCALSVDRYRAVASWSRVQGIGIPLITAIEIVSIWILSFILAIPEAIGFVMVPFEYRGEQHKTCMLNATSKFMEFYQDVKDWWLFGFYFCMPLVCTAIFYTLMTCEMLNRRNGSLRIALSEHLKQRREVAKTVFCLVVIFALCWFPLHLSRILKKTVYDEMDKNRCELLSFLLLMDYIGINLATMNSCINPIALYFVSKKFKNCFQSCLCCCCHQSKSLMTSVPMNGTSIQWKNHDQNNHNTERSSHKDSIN
Experimental: Male New Zealand rabbits were killed by cervical dislocation and exsanguination. Femoral and pulmonary arteries were isolated, cleaned of connective tissue, and cut into 4-mm rings. The endothelium was denuded by placing the rings over hypodermic tubing (32 gauge for femoral rings and 28 gauge for pulmonary rings, Small Parts, Inc, Miami, Fla.) and gently rolling them. […] Resting tension was adjusted to 3.0 g for femoral and 4.0 g pulmonary arteries; the rings were left for 90 minutes to equilibrate.

endothelin receptor ETA = molecular target: T2, endothelin receptor ETA (Homo sapiens, UniProt P25101); format: binding; conditions: Human cloned receptor data (footnote c); read-out: ERBA-A IC50
T2 sequence (P25101 21-427): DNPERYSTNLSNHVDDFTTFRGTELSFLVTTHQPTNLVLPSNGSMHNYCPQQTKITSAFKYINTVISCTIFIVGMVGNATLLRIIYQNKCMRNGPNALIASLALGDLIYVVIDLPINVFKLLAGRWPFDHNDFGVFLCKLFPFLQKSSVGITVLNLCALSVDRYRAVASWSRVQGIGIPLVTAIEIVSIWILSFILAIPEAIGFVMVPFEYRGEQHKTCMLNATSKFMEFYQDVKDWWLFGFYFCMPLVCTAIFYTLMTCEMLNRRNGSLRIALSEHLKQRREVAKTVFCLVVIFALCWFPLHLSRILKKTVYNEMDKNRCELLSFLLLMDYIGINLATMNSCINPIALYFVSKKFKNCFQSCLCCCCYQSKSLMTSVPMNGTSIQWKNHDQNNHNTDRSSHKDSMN

human ETB receptor = molecular target: T3, human ETB receptor (Homo sapiens, UniProt P24530); format: binding, human (method text also: rat cerebellar membranes); conditions: Human cloned receptor data (footnote c); read-out: ERBA-B IC50
T3 construct: expressed in transfected cells; host or cells: CHO-K1
T3 sequence (P24530 27-442): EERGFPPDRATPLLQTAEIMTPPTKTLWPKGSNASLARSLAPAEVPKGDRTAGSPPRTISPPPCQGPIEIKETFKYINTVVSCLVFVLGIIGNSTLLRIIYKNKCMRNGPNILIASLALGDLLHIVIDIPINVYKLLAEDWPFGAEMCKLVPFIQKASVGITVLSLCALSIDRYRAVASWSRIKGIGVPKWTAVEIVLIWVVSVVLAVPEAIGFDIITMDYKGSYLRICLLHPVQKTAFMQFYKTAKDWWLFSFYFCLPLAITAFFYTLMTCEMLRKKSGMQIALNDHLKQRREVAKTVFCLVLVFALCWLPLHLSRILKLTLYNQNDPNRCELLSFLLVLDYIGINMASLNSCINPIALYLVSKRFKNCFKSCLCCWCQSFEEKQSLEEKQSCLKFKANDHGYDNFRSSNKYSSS
From the text: The compounds of Formula I are valuable antagonists of endothelin.
ENDOTHELIN RECEPTOR BINDING ASSAY-B (ERBA-B) [^125 I]-ET-1 BINDING IN RAT CEREBELLAR MEMBRANES
materials and Terms Used:
Count filters for radioactivity in gamma counter.
The above process has also been modified by using human recombinant CHO-K1 cells.
The tissue used for human ETB was recombinant human ETB receptor expressed in CHO-K1 cells (chinese hamster ovary cells). The gene for human ETB receptor was cloned and inserted into the pRc-CMW expression vector, then transfected into CHO-K1 cells by electroporation. For binding assays, membranes (0.7 mg protein) of CHO-K1 cells expressing recombinant human ETB receptor were used.
^c Human cloned receptor data

brain = conditions: new model of local ischemia in the brain; cited from earlier work
central nervous system = conditions: intracerebroventricular, rats; cited from earlier work
[4] = system: basilar artery vasoconstriction; conditions: canine two-hemorrhage model, after 7 days; cited from earlier work

## CC(C)C[C@@H]1NC(=O)[C@@H](C(C)C)NC(=O)[C@@H]2CCCN2C(=O)[C@@H](CC(=O)O)NC(=O)[C@@H](Cc2c[nH]c3ccccc23)NC1=O [BQ-123] (cyclo(L[dW][dD]P[dV]))
Cerebral vasospasm [1]
  effect on early cerebral vasospasm following SAH: prevents early cerebral vasospasm
ETA
  survival rate: significantly increased the survival rate
Cerebral vasospasm [2]
  effect on early cerebral vasospasm following SAH: prevents early cerebral vasospasm

## COc1ccc(C2(OC(=O)N[C@@H](C)c3ccccc3)OC(=O)C(c3ccc4c(c3)OCO4)=C2Cc2ccccc2)cc1 (stereo partly shown) [Example 1, (1-Phenyl-ethyl)-carbamic acid-4-benzo[1,3]dioxol-5-yl-3-benzyl-2-(4-methoxy-phenyl)-5-oxo-2,5-dihydro-furan-2-yl ester]
[3]
  VERA-A pA2: 6.1

## COc1ccc(C2(OC(=O)N[C@@H](C)c3cccc4ccccc34)OC(=O)C(c3ccc4c(c3)OCO4)=C2Cc2cc(OC)c(OC)c(OC)c2)cc1 (stereo partly shown) [Example 2, (1-Naphthalen-1-yl-ethyl)-carbamic acid-4-benzo[1,3]dioxol-5-yl-2-(4-methoxy-phenyl)-5-oxo-3-(3,4,5-trimethoxy-benzyl)-2,5-dihydro-furan-2-yl ester]
Endothelin receptor ETA
  pIC50: 9.00

## CCOC(=O)CNC(=O)OC1(c2ccc(OC)cc2)OC(=O)C(c2ccc3c(c2)OCO3)=C1Cc1cc(OC)c(OC)c(OC)c1 (stereo not shown) [Example 3, [4-Ben zo[1.3]dioxol-5-yl-2-(4-methoxy-phenyl)-5-oxo-3-(3,4,5-trimethoxy-benzyl)-2,5-dihydro-furan-2-yloxycarbonylamino]-acetic acid ethyl ester]
Endothelin receptor ETA
  pIC50: 9.46
[3]; read-out: VERA-A pA2 (converted)
  Kb: 50.1 nM
Human ETB receptor
  pIC50: 5.74

## COc1cccc(Oc2c(NS(=O)(=O)c3ccc(C(C)(C)C)cc3)ncnc2OCCO)c1 [Ro 46-2005]
Cerebral vasospasm [1]; SAH
  effect on systemic arterial blood pressure: no significant effect on systemic arterial blood pressure
Cerebral vasospasm [1]
  effect on early cerebral vasospasm following SAH: prevent early cerebral vasospasm

## ET-1: a potent vasoconstrictor, is a 21 amino acid bicyclic peptide (CSCSSLMDKECVYFCHLDIIW; ends and bridges not checked; also: bicyclic peptide; UniProt P05305 53-73, looked up)
brain
  lesion development: induced lesion development
Central nervous system
  behavioral effects: evoke several behavioral effects

## FR 139317
[4]
  inhibition of vasoconstriction of the basilar artery: significantly inhibited the vasoconstriction of the basilar artery after 7 days

Source: patent publication US5922759A, “Butenolide endothelin antagonists” (Warner-Lambert Company, priority 1997, dated 1999)
